Assay in all cases: NCI anticancer screen, dose series, 48 h
Assay [1] deals with CCRF-CEM.
Assay [2] has as its system COLO 205.
The test system of assay [3] is EKVX.
Assay [4] concerns HCT-116.
For assay [5], the system named is HCT-15.
In assay [6] the test system is HT-29.
For assay [7], the system named is IGROV-1.
The test system of assay [8] is K562.
Assay [9] deals with KM12.
The test system of assay [10] is LOX IMVI.
The subject of assay [11] is NCI-H226.
The test system of assay [12] is OVCAR-3.
The test system of assay [13] is OVCAR-5.
The subject of assay [14] is RPMI-8226.
The subject of assay [15] is SK-MEL-2.
The test system of assay [16] is SK-OV-3.
The subject of assay [17] is SN12C.
In assay [18] the test system is SW-620.
For assay [19], the system named is UACC-62.
In assay [20] the test system is UO-31.

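Dose response: 5 concentrations. Exposure: 48 h. Format: 96-well plates. Endpoint: linear interpolation; highest concentration if not reached. GI50 is the concentration that inhibits growth by half.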 Calls of active or inactive are those of the source. Cut-off read from the data, not from the text of the source: active = GI50 up to about 1.1 µM and inactive = higher.

On to `CC(=O)c1cccc(NC(=O)C(=O)C(C(=O)NN)c2ccccc2)c1` (stereo not given), for which the GI50 in assay [1] is > 100 µM (inactive); in [2], > 100 µM (inactive); in assay [3], > 100 µM (inactive); in assay [4] it was > 100 µM (inactive); in assay [5], above 100 µM; in [6], > 100 µM (inactive). For the same compound, the GI50 in [7], in [8], in assay [9], in assay [10], in assay [11] and in [12] was > 100 µM (inactive) throughout. Moreover, the GI50 in [13], in assay [14], in assay [15], in [16], in [17] and in [18] was > 100 µM (inactive) each time. Besides, the GI50 in [19] and in assay [20] was > 100 µM (inactive) in each case.

On to `CCOC(=O)C(C(C)=O)C1CC=CC1` (stereo not given), for which the GI50 in assay [1] is > 100 µM (inactive); in assay [2], > 100 µM (inactive); in [3], > 100 µM (inactive); in [4], > 100 µM (inactive); in assay [5], above 100 µM; in assay [6] it was > 100 µM (inactive). Also, the GI50 in assay [7], in assay [8], in assay [9], in assay [10], in assay [11] and in assay [12] was > 100 µM (inactive) throughout. Besides, the GI50 in [13], in assay [14], in [15], in assay [16], in [17] and in assay [18] was > 100 µM (inactive) throughout. Further, the GI50 in assay [19] and in assay [20] was > 100 µM (inactive) in each case.

With `CCCN(CCC)CCc1ccc(OC2=CCN(C)CC2)cc1`, the GI50 was 93.5 µM (inactive) in assay [1]; 50.6 µM (inactive) in assay [2]; > 100 µM (inactive) in assay [3]; 39.8 µM (inactive) in assay [4]; 36.9 µM in [5]; 16 µM (inactive) in assay [6]. In addition, the GI50 in assay [7] is 67.3 µM (inactive); in [8], 42.6 µM (inactive); in assay [9], 30.4 µM (inactive); in assay [10], 23 µM (inactive); in [11], > 100 µM (inactive); in assay [12], 79.3 µM (inactive). For the same compound, the GI50 in assay [13], in assay [14], in assay [15], in assay [16], in assay [17] and in assay [18] was > 100 µM (inactive) in each case. Besides, the GI50 in assay [19] is 38 µM (inactive); in assay [20] it was 23.6 µM (inactive).

`O=c1c(C(c2ccccn2)c2c(O)oc3cc(O)ccc3c2=O)c(O)oc2cc(O)ccc12`: the GI50 is > 100 µM (inactive) in assay [1]; > 100 µM (inactive) in assay [2]; > 100 µM (inactive) in [3]; > 100 µM (inactive) in assay [4]; above 100 µM in assay [5]; > 100 µM (inactive) in assay [6]. Also, the GI50 in assay [7], in assay [8], in assay [9], in assay [10], in assay [11] and in assay [12] was > 100 µM (inactive) throughout. Further, the GI50 in [13], in assay [14], in assay [15], in assay [16], in assay [17] and in assay [18] was > 100 µM (inactive) throughout. In addition, the GI50 in assay [19] and in [20] was > 100 µM (inactive) in each case.

The record behind these values is ChEMBL document CHEMBL1201862, “PubChem BioAssay data set” (2004).
